Measured values: the supplement of paper PMC10307832

How the values were obtained:
Assay in all cases: relative viability (nuclei count vs DMSO), 5 days (fraction); higher = more cells survive
[1] = compound: O=C(CCCCCCNC(=O)c1cnc(N(c2ccccc2)c2ccccc2)nc1)NO [Ricolinostat] + CCNC(=O)c1noc(-c2cc(C(C)C)c(O)cc2O)c1-c1ccc(CN2CCOCC2)cc1 [Luminespib] (partner 0.01 µM)
Method in brief: (§1)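 Relative viability divides the nuclei count in treated wells by that in vehicle wells. Lung cancer cell lines were seeded in 1536-well plates, dosed by pin tool the next day, and fixed and stained after 5 days in one step with final 0.05% Triton X-100, 1% formaldehyde and 1 ug/ml Hoechst. Dosing was a single drug or a fixed anchor-drug dose plus five library-drug doses (not always all listed) in √10 steps, and values are medians of duplicate plates imaged at 4×.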

[2] = compound: C1=CC=C(C(=C1)C2=CC=C(C=C2)C3=CSC4=C3C(=C(C(=O)N4)C#N)O)O + CCNC(=O)c1noc(-c2cc(C(C)C)c(O)cc2O)c1-c1ccc(CN2CCOCC2)cc1 [Luminespib] (partner 0.01 µM)
Method in brief: as §1

[3] = compound: O=C(CCCCCCNC(=O)c1cnc(N(c2ccccc2)c2ccccc2)nc1)NO [Ricolinostat] + NC(=O)Nc1cc(-c2cccc(F)c2)sc1C(=O)N[C@H]1CCCNC1 [AZD7762] (partner 0.2 µM)
Method in brief: as §1

[4] = compound: O=C(CCCCCCNC(=O)c1cnc(N(c2ccccc2)c2ccccc2)nc1)NO [Ricolinostat] + CC(=O)c1c(C)c2cnc(Nc3ccc(N4CCNCC4)cn3)nc2n(C2CCCC2)c1=O [Palbociclib] (partner 0.5 µM)
Method in brief: as §1

[5] = compound: CC1=CN2C(=O)C=C(N=C2C(=C1)C(C)NC3=CC=CC=C3)N4CCOCC4 [TGX 221] + O=C(c1cc(Cc2n[nH]c(=O)c3ccccc23)ccc1F)N1CCN(C(=O)C2CC2)CC1 [Olaparib] (partner 8 µM)
Method in brief: as §1

Work on NCI-H1792 yielded a relative viability ([1]; first compound 0.08 µM) of 0.297, a relative viability ([1]; first compound 0.253 µM) of 0.417 and a relative viability ([1]; first compound 0.8 µM) of 0.373. For the same cell line, the relative viability ([1]; first compound 2.53 µM) was 0.418, the relative viability ([2]; first compound 0.253 µM) was 0.576 and the relative viability ([2]; first compound 0.8 µM) was 0.641. It also gave a relative viability ([2]; first compound 2.53 µM) of 0.473, a relative viability ([2]; first compound 8 µM) of 0.288 and a relative viability ([3]; first compound 0.253 µM) of 0.716. The relative viability ([3]; first compound 0.8 µM) was 0.581, the relative viability ([3]; first compound 2.53 µM) was 0.375 and the relative viability ([4]; first compound 0.253 µM) was 0.635. For the same cell line, the relative viability ([4]; first compound 0.8 µM) was 0.684, the relative viability ([4]; first compound 2.53 µM) was 0.742 and the relative viability ([5]; first compound 0.08 µM) was 0.267. It also gave a relative viability ([5]; first compound 0.253 µM) of 0.385, a relative viability ([5]; first compound 0.8 µM) of 0.386 and a relative viability ([5]; first compound 2.53 µM) of 0.383. The relative viability ([5]; first compound 8 µM) was 0.287.
